Measured values published in patent US20090143279A1 (priority 2007, published 2009).
Where two headings read alike, the source gives them in different places.

Legend:
[1] = system: OXPHOS gene expression; type: cell-based, mouse; conditions: for GE-HTS (composite Z-score): normalized score vs mock-treated (DMSO) wells
[2] = system: reactive oxygen species; type: cell-based, mouse; conditions: for ROS (composite Z-score): normalized score vs mock-treated (DMSO) wells
[3] = system: mtOXPHOS transcripts; type: cell-based, mouse; conditions: for mitoOX (composite Z-score): normalized score vs mock-treated (DMSO) wells
[4] = system: cellular dehydrogenase activity; conditions: for MTT (composite Z-score): normalized score vs mock-treated (DMSO) wells
[5] = system: C2C12 myotubes; conditions: for Viability (composite Z-score): normalized score vs mock-treated (DMSO) wells
[6] = system: nuOXPHOS transcripts; type: cell-based, mouse; conditions: for nucOX (composite Z-score): normalized score vs mock-treated (DMSO) wells
[7] = system: cytochrome c; type: cell-based, mouse; conditions: for cyt c (composite Z-score): normalized score vs mock-treated (DMSO) wells
[8] = system: mitochondrial membrane potential; type: cell-based, mouse; conditions: for ΔΨm (composite Z-score): normalized score vs mock-treated (DMSO) wells
[9] = composite Z-score vs DMSO, Conc 20 μM
[10] = composite Z-score vs mock-treated (DMSO) wells, Conc 20 μM
[11] = composite Z-score vs DMSO wells, Conc 20 μM
[12] = 20 μM, composite Z-score vs DMSO
[13] = composite Z-score vs DMSO, Conc 8.94 μM
[14] = normalized composite Z-score vs mock-treated (DMSO) wells, Conc 20 μM

SMILES: CC[C@@H](C)C(=O)O[C@H]1[C@H](O)[C@H]2[C@@H](CN3C[C@@H](C)CC[C@H]3[C@@]2(C)O)[C@@H]2C[C@]34O[C@]5(O)[C@@H](OC(=O)[C@](C)(O)[C@@H](C)O)CC[C@@]3(C)[C@@H]5[C@@H](OC(C)=O)[C@@H](OC(C)=O)[C@H]4[C@@]21O (stereo in doubt) [protoveratrine B]
- GE-HTS [1, 9]: 0.018
- ROS [2, 9]: 0.244
- mitoOX [3, 9]: −0.096
- MTT [4, 9]: 0.904
- Viability [5, 9]: 0.708
- nucOX [6, 9]: 0.058
- cyt c [7, 9]: −1.085
- ΔΨm [8, 9]: 0.942

SMILES: CCC(C)C(=O)OC1[C@@H]2CC3=C4CC(=O)O[C@@H](c5ccoc5)[C@]4(C)CCC3[C@@](C)(C2=O)[C@@H](CC(=O)OC)C1(C)C (stereo partly shown) [khayasin]
- GE-HTS [1, 10]: 0.671
- ROS [2, 10]: 0.528
- mitoOX [3, 10]: 0.326
- MTT [4, 10]: −0.812
- Viability [5, 10]: −0.077
- nucOX [6, 10]: 0.798
- cyt c [7, 10]: −0.281
- ΔΨm [8, 10]: 0.007

SMILES: CC(C)NCC(O)c1cc(O)cc(O)c1 (stereo not shown) [metaproterenol]
- GE-HTS [1, 11]: 0.086
- ROS [2, 11]: 2.154
- mitoOX [3, 11]: −0.094
- MTT [4, 11]: −0.832
- Viability [5, 11]: 0.206
- nucOX [6, 11]: 0.138
- cyt c [7]: 0.339
- cyt c [7, 11]: 0.212
- ΔΨm [8, 11]: −1.005

SMILES: COc1ccc([C@@H](C)C(=O)c2ccc(O)cc2O)cc1 [(R)-angolensin]
- GE-HTS [1, 10]: 0.403
- ROS [2, 10]: 0.225
- mitoOX [3, 10]: −0.245
- MTT [4, 10]: −0.743
- Viability [5, 10]: −0.164
- nucOX [6, 10]: 0.703
- cyt c [7, 10]: −0.063
- ΔΨm [8, 10]: −0.444

SMILES: CC(C)(C)NCC(O)c1ccccc1Cl (stereo not shown) [tulobuterol]
- GE-HTS [1, 12]: −0.101
- ROS [2, 12]: 0.569
- mitoOX [3, 12]: 0.258
- MTT [4, 12]: −0.706
- Viability [5, 12]: −0.239
- nucOX [6, 12]: −0.257
- cyt c [7, 12]: 0.326
- ΔΨm [8, 12]: −1.186

SMILES: C[C@]12CCC(=O)C=C1CC[C@@H]1[C@@H]2C(=O)C[C@@]2(C)[C@H]1CC[C@]2(O)C(=O)CO [cortisone]
- GE-HTS [1, 9]: −0.428
- ROS [2, 9]: 0.527
- mitoOX [3, 9]: −0.830
- MTT [4, 9]: −0.146
- Viability [5, 9]: 0.644
- nucOX [6, 9]: −0.165
- cyt c [7, 9]: −0.078
- ΔΨm [8, 9]: −0.232

SMILES: COc1cccc(-c2cc(=O)c3cc(OC)ccc3o2)c1 [6,3′-dimethoxyflavone]
- GE-HTS [1, 10]: 0.072
- ROS [2, 10]: −0.882
- mitoOX [3, 10]: −0.021
- MTT [4, 10]: −1.534
- Viability [5, 10]: 0.413
- nucOX [6, 10]: 0.087
- cyt c [7, 10]: 0.245
- ΔΨm [8, 10]: 1.915

SMILES: Cc1noc(NS(=O)(=O)c2ccc(N)cc2)c1C [sulfisoxazole]
- GE-HTS [1, 11]: 0.103
- ROS [2, 11]: −0.095
- mitoOX [3, 11]: −0.187
- MTT [4, 11]: −0.835
- Viability [5, 11]: −1.895
- nucOX [6, 11]: 0.239
- cyt c [7]: 0.001
- cyt c [7, 11]: 0.649
- ΔΨm [8, 11]: −0.543

SMILES: C=C(C)[C@@H]1CC[C@]2(C(=O)O)CC[C@]3(C)[C@H](CC[C@@H]4[C@@]5(C)CC[C@H](O)C(C)(C)[C@@H]5CC[C@]43C)[C@@H]12 [betulinic acid]
- GE-HTS [1, 9]: 0.145
- ROS [2, 9]: 0.202
- mitoOX [3, 9]: 0.259
- MTT [4, 9]: −2.381
- Viability [5, 9]: 0.850
- nucOX [6, 9]: 0.069
- cyt c [7, 9]: 0.481
- ΔΨm [8, 9]: −1.220

SMILES: CC1=C(CCC(=O)O)c2cc3[nH]c(cc4nc(cc5[nH]c(cc1n2)c(C)c5C(C)O)C(C)=C4C(C)O)c(C)c3CCC(=O)O (stereo not shown) [haematoporphyrin]
- GE-HTS [1, 9]: 0.309
- ROS [2, 9]: 1.666
- mitoOX [3, 9]: 0.416
- MTT [4, 9]: −3.312
- Viability [5, 9]: −1.933
- nucOX [6, 9]: 0.251
- cyt c [7, 9]: 0.324
- ΔΨm [8, 9]: −3.662

SMILES: CC(C)CCC[C@@H](C)[C@H]1CC[C@H]2[C@@H]3C[C@@H](O)[C@@]4(O)C[C@@H](O)CC[C@]4(C)[C@H]3CC[C@]12C [cholestan-3beta,5alpha,6beta-triol]
- GE-HTS (composite Z-score) ([1]; Conc 20 μM): 0.382
- ROS (composite Z-score) ([2]; Conc 20 μM): 1.000
- mitoOX (composite Z-score) ([3]; Conc 20 μM): 0.074
- MTT (composite Z-score) ([4]; Conc 20 μM): 0.120
- Viability (composite Z-score) ([5]; Conc 20 μM): −0.869
- nucOX (composite Z-score) ([6]; Conc 20 μM): 0.523
- cyt c (composite Z-score) ([7]; Conc 20 μM): 0.815
- ΔΨm (composite Z-score) ([8]; Conc 20 μM): −0.575

SMILES: C[C@]12CCC(=O)C=C1C=C[C@@H]1[C@@H]2CC[C@@]2(C)[C@H]1CC[C@@]2(O)CCC(=O)O [canrenoic acid]
- GE-HTS (composite Z-score) ([1]; Conc 20 μM): 0.072
- ROS (composite Z-score) ([2]; Conc 20 μM): 0.803
- mitoOX (composite Z-score) ([3]; Conc 20 μM): −0.047
- MTT (composite Z-score) ([4]; Conc 20 μM): −0.973
- Viability (composite Z-score) ([5]; Conc 20 μM): −0.004
- nucOX (composite Z-score) ([6]; Conc 20 μM): 0.154
- cyt c (composite Z-score) ([7]; Conc 20 μM): 0.732
- ΔΨm (composite Z-score) ([8]; Conc 20 μM): −0.749

SMILES: CN[C@@H]1[C@@H](O)[C@@H](O[C@@H]2[C@@H](O)[C@H](O[C@H]3OC(CN)=CC[C@H]3N)[C@@H](N)C[C@H]2N)OC[C@]1(C)O [sisomicin]
- GE-HTS [1, 13]: −0.448
- ROS [2, 13]: 1.889
- mitoOX [3, 13]: −0.588
- MTT [4, 13]: −1.515
- Viability [5, 13]: −0.274
- nucOX [6, 13]: −0.337
- cyt c [7, 13]: 0.746
- ΔΨm [8, 13]: −0.962

SMILES: CC1CC(O)C2OC1CC1C(CC1(C)C)C2C (stereo not shown) [3,7-epoxycaryophyllan-6-ol]
- GE-HTS [1, 14]: −1.018
- ROS [2, 14]: 0.255
- mitoOX [3, 14]: −0.407
- MTT [4, 14]: −1.302
- Viability [5, 14]: −0.644
- nucOX [6, 14]: −1.203
- cyt c [7, 14]: 0.604
- ΔΨm [8, 14]: −0.461

SMILES: COC(=O)C(C)c1ccc(C(=O)c2cccs2)cc1 (stereo not shown) [suprofen methyl ester]
- GE-HTS [1, 9]: 0.139
- ROS [2, 9]: 0.591
- mitoOX [3, 9]: −0.048
- MTT [4, 9]: −1.160
- Viability [5, 9]: 0.611
- nucOX [6, 9]: 0.216
- cyt c [7, 9]: −0.191
- ΔΨm [8, 9]: 0.577

SMILES: COC(=O)[C@H](c1ccccc1Cl)N1CCc2sccc2C1 [clopidogrel]
- GE-HTS [1]: −1.470
- ROS [2]: −0.196
- mitoOX [3]: −1.441
- MTT [4]: −1.447
- Viability [5]: −1.134
- nucOX [6]: −1.328
- cyt c [7]: 0.410
- ΔΨm [8]: −0.698

SMILES: COc1cc(OC)c2c(c1)O[C@H](c1ccc(OC)c(OC)c1)[C@@H](O)C2 [catechin tetramethylether]
- GE-HTS [1, 14]: −1.052
- ROS [2, 14]: −0.094
- mitoOX [3, 14]: −0.798
- MTT [4, 14]: −0.573
- Viability [5, 14]: 0.435
- nucOX [6, 14]: −1.106
- cyt c [7, 14]: 0.586
- ΔΨm [8, 14]: −0.172

SMILES: CC(=O)O[C@H]1C[C@@H](OC(C)=O)C(C)(C)C2C[C@@H](O)[C@]3(C)C(CC[C@@]4(C)[C@H](c5ccoc5)OC(=O)[C@H]5O[C@]543)[C@]21C (stereo partly shown) [7-deacetylkhivorin]
- GE-HTS [1, 10]: 0.477
- ROS [2, 10]: −0.618
- mitoOX [3, 10]: 0.188
- MTT [4, 10]: 0.608
- Viability [5, 10]: 0.893
- nucOX [6, 10]: 0.543
- cyt c [7, 10]: 0.079
- ΔΨm [8, 10]: −0.049

SMILES: COc1c(O)cc(O)cc1O [iretol]
- GE-HTS [1, 10]: −0.881
- ROS [2, 10]: −0.393
- mitoOX [3, 10]: −1.366
- MTT [4, 10]: −0.086
- Viability [5, 10]: −0.552
- nucOX [6, 10]: −0.583
- cyt c [7, 10]: 0.347
- ΔΨm [8, 10]: −0.404
